Results taken from a melting point compilation (Tetko et al.; mined from patent text by program, amines drawn as free bases though some values may be those of a salt).

| SMILES | melting point [°C] |
| --- | --- |
| CCCCCCCCN(C[C@H]1CC[C@@H](CN(CCCCCCCC)C(=O)Nc2ccc(N(C)C)cc2)CC1)C(=O)Nc1ccc(N(C)C)cc1 | 105 to 107 |
| CCN(CC)CCOc1ccc(N2C(=O)C(c3ccccc3)=C3CCCCC32)cc1 (stereo not given) | 81 |
| CC(=O)N1CCc2nc3cccc(N)c3c(C)c2CC1 | 150 |
| CCOC(=O)C1=C(C)NC(COC(C)=O)=C(C(=O)OCC)C1c1cccc([N+](=O)[O-])c1 (stereo not given) | 133 to 135 |
| CCCCc1nc2cccc(CCO)c2n1Cc1ccccc1Cl | 130 to 132 |
| CN(C)C(=O)N1CC(Sc2ccc(Cl)cc2)C1 | 96 to 97 |
| COc1ccc(CC2(C(=O)N[C@@H](Cc3ccc(NC(=O)c4c(Cl)cccc4Cl)cc3)C(=O)O)CCCCC2)cc1 | 136 to 140 |
| COc1cc(Br)c2c(c1)CCCN2 | 125 to 126 |
| C=C(CN(C)C)C(O)c1ncc2c(c1O)COC2c1cccc(Cl)c1Cl (stereo not given) | 180 to 184 |
| CCOC(=O)N1CCOC(c2ccccc2)(c2ccccc2)CC1 | 122 to 123 |
| O=c1[nH]c2cc(Cl)ccc2c(=O)c(-c2ccc([N+](=O)[O-])cc2)c1O | 310 to 312 |
| Nc1cnn(CCO)c1N | 158 to 160 |
| Cc1sc2ccccc2c1C=O | 95 to 96 |
| CN1CCN(c2ccc3nc(N)c(C#N)c(O)c3c2)CC1 | 156 |
| CSc1sc(C(=O)N(C)C2CCCCC2)c2c1-c1oncc1C(C)(C)C2 | 150 to 153 |
| Cc1oc(-c2ccccc2)nc1COc1ccc(CCC(C(=O)O)c2c[nH]nc2-c2ccccc2)cc1 (stereo not given) | 104 to 105 |
| COC(=O)C(C)(C)OCc1cc2cc(Cl)ccc2n1S(=O)(=O)c1ccc2c(c1)OCO2 | 90 to 92 |
| CCN(CC)CCC(=O)Nc1ccc([N+](=O)[O-])cc1 | 86 to 88 |
| O=C(CCCCCN1CCC(c2cccc(C(F)(F)F)c2)CC1)N1Cc2ccccc2C1 | 71 |
| O=S(=O)(/C=C\S(=O)(=O)c1ccccc1)c1ccccc1 | 100 to 101 |

| SMILES | melting point [°C] |
| --- | --- |
| Cc1cccc(-c2[nH]c(C(C)C)nc2-c2ccc(F)c(-c3c[nH]cn3)c2)n1 | 268 to 270 |
| Cc1nc(OC(C)C(=O)NC(C)(C#N)C(C)(C)C)c(Cl)c(C(F)(F)F)n1 (stereo not given) | 137 to 139 |
| O=C(c1ccc(Cl)cc1)C(Cn1cncn1)c1ccc(Cl)cc1 (stereo not given) | 126 to 128 |
| CN1CCCC1=NC(=O)Nc1ccccc1 | 140 to 144 |
| CCCC(=O)Nc1c(C)c(C)c2c(c1C)CC(C)(C)O2 | 136 to 138 |
| COCC1CN(C(=O)c2cc(OC)c(OC)c(OC)c2)CCN1C(=O)c1csc(-c2ccc(OC)c(OC)c2)n1 (stereo not given) | 149 to 151 |
| CC(C)SN1N=C(c2ccccc2)C(SC(C)C)(SC(C)C)C1=O | 66 to 67 |
| CC(C)C(=O)C(O)(Cc1ccc(Cl)cc1Cl)c1cccnc1 (stereo not given) | 144 to 145 |
| CS(=O)(=O)c1ccc(-c2sc(N3CCCCC3)nc2-c2ccc(F)cc2)cc1 | 173 to 175 |
| CCn1c2ccccc2c2cc(N(Cc3ccccc3)Cc3ccccc3)ccc21 | 123 to 125 |
| COC(=O)CCNC(=O)C(=Cc1ccccc1)CSC(=O)c1ccccc1 | 66 |
| CCOC(=O)C(CC=C1CCN(c2ccccc2)C1=O)Nc1cc(Cl)ccc1I (stereo not given) | 132 to 134 |
| COC(=O)CNC(=O)[C@H](CSC(c1ccccc1)(c1ccccc1)c1ccccc1)NC(=O)OC(C)(C)C | 167 to 169 |
| CN(C)c1nc2ccccc2n(-c2ccc(Cl)cc2)c1=O | 235 to 237 |
| COC(=O)C1=C(C(=O)OC)c2c([nH]c3ccccc23)CC1 | 249 |
| COc1ccc2cc(-c3oc4ccccc4c3C(O)CC3CCCC3)ccc2c1 (stereo not given) | 176 to 177 |
| COc1ccc2cc([C@H](C)C(=O)OCCCN3C(=O)OC[C@H]3C(C)(C)S)ccc2c1 | 118 |
| CN1CCNC(=O)C1c1ccc(N)cc1 (stereo not given) | 153 to 154 |
| CN1Cc2c(C(N)=S)ncn2-c2ccccc2C1=O | 295 to 297 |
| COc1cccc(OC)c1CNC(=O)c1ccc2cnccc2n1 | 169 to 171 |
